{"source": "patent US20220132849A1", "about": "“USE OF SPIROPIDION” (SYNGENTA CROP PROTECTION AG, priority 2019, published 2022)", "key": {"[1]": {"assay": "Uptake from soil into tomato plants after drench, LC/MS of roots, stem and leaves", "set-up": "species or system Solanum lycopersicum Ailsa Craig", "settings": "in vivo", "description": "In a greenhouse at 20° C., tomato plants (Solanum lycopersicum Ailsa Craig at BBCH 12 growth stage) grown in 50% Jip 3 and 50% peat in 5″ pots were drenched (in five replicates) with 50 mL of a 100 ppm aqueous active ingredient solution (5 mg of active ingredient per plant) prepared from dilution of (i) a spiropidion SC300 formulation (SC=suspension concentrate), and (ii) commercially-available spirotetramat as a SC240 formulation. At four intervals post-treatment (1, 7, 14 and 21 days), tomato plants subjected to treatments (i) and (ii) were sectioned into roots, stem and separate leaf segments, washed and extracted with the quantification by liquid chromatography/mass spectrometry (LC/MS) of amounts (μg) of spiropidion and its dione (cide), and spirotetramat and its dione (cide)."}, "[2]": {"tested_on": "selected pests", "assay": "Soil drench on vegetable plants, overall comparison over crops and pests", "format": "in vivo", "settings": "soil treatment at the same dose rate (10 mg ai/plant); range of vegetable crops and pests", "description": "(§1) To the soil at the base of vegetable plants naturally infested with a population of a selected pest (refer Table 2) was applied by drench 30 to 100 mL per plant of an active ingredient (ai) solution at a dose rate of 10 mg ai/plant, wherein the solutions consisted of spiropidion or spirotetramat as active ingredient. Soil application was made 3 to 7 days after transplant in a nursery tray. Spiropidion was applied as a dilution of an SC300 formulation in water. Spirotetramat was applied as a dilution of an SC240 formulation in water. Mortality rates were recorded as a percentage against an untreated check plant and were evaluated at between 5 and 40 days after soil application."}, "[3]": {"tested_on": "Thrips sp.", "assay": "Soil drench on naturally infested vegetable plants, mortality", "format": "in vivo", "settings": "soil drench 10 mg ai/plant, 5 to 40 days after application", "description": "as §1"}, "[4]": {"tested_on": "Bemisia tabaci", "assay": "Soil drench on naturally infested vegetable plants, mortality", "format": "in vivo", "settings": "soil drench 10 mg ai/plant, 5 to 40 days after application", "description": "as §1"}, "[5]": {"tested_on": "Tetranychus urticae", "assay": "Soil drench on naturally infested vegetable plants, mortality", "format": "in vivo", "settings": "soil drench 10 mg ai/plant, 5 to 40 days after application", "description": "as §1"}, "[6]": {"tested_on": "Aphis gossypii", "assay": "Soil drench on naturally infested vegetable plants, mortality", "format": "in vivo", "settings": "soil drench 10 mg ai/plant, 5 to 40 days after application", "description": "as §1"}, "[7]": {"tested_on": "coffee leaf miner (Perileucoptera coffeella)", "assay": "Soil drench on naturally infested coffee plants, mortality", "format": "in vivo", "settings": "30 to 95 days after application, against untreated check plant", "description": "To the soil surface at the base of separate coffee plants naturally infested with a population of coffee leaf miner (Perileucoptera coffeella) was applied as a drench 50 to 100 mL of an active ingredient (ai) solution at a dose rate of 390 mg ai/plant, wherein the active ingredient was spiropidion, or thiamethoxam as a commercial standard. Spiropidion was applied as a dilution of an SC300 formulation in water. Thiamethoxam was applied as a dilution of a WG25 formulation in water. Mortality rates were recorded as a pest control percentage against an untreated check plant and were evaluated at between 30 and 95 days after soil application of the respective active ingredients."}}, "data": [{"smiles": "CCOC(=O)OC1=C(c2c(C)cc(Cl)cc2C)C(=O)N(C)C12CCN(OC)CC2", "note": "[spiropidion]", "values": [{"measurement": "rate of uptake from the soil compared to spirotetramat", "setting": "[1]", "value": "much greater rate of uptake from the soil"}, {"measurement": "mortality rates compared to spirotetramat", "setting": "[2]", "value": "consistently higher"}]}, {"smiles": "CCOC(=O)OC1=C(c2cc(C)ccc2C)C(=O)N[C@]12CC[C@@H](OC)CC2", "note": "[spirotetramat]", "values": [{"measurement": "% Mortality rate against untreated plant", "setting": "[3]; Test no. 9, Cucumber", "value": 90, "unit": "%"}, {"measurement": "% Mortality rate against untreated plant", "setting": "[3]; Test no. 11, Melon", "value": 70, "unit": "%"}, {"measurement": "% Mortality rate against untreated plant", "setting": "[3]; Test no. 12, Melon", "value": 90, "unit": "%"}, {"measurement": "% Mortality rate against untreated plant", "setting": "[3]; Test no. 13, Melon", "value": 64, "unit": "%"}, {"measurement": "% Mortality rate against untreated plant", "setting": "[3]; Test no. 22, Hot pepper", "value": 46, "unit": "%"}, {"measurement": "% Mortality rate against untreated plant", "setting": "[3]; Test no. 23, Sweet pepper", "value": 53, "unit": "%"}, {"measurement": "% Mortality rate against untreated plant", "setting": "[4]; Test no. 3, Eggplant", "value": 68, "unit": "%"}, {"measurement": "% Mortality rate against untreated plant", "setting": "[4]; Test no. 4, Eggplant", "value": 93, "unit": "%"}, {"measurement": "% Mortality rate against untreated plant", "setting": "[4]; Test no. 5, Eggplant", "value": 76, "unit": "%"}, {"measurement": "% Mortality rate against untreated plant", "setting": "[4]; Test no. 6, Eggplant", "value": 91, "unit": "%"}, {"measurement": "% Mortality rate against untreated plant", "setting": "[4]; Test no. 7, Eggplant", "value": 96, "unit": "%"}, {"measurement": "% Mortality rate against untreated plant", "setting": "[4]; Test no. 14, Melon", "value": 64, "unit": "%"}, {"measurement": "% Mortality rate against untreated plant", "setting": "[4]; Test no. 16, Squash", "value": 83, "unit": "%"}, {"measurement": "% Mortality rate against untreated plant", "setting": "[4]; Test no. 17, Squash", "value": 42, "unit": "%"}, {"measurement": "% Mortality rate against untreated plant", "setting": "[4]; Test no. 20, Tomato", "value": 84, "unit": "%"}, {"measurement": "% Mortality rate against untreated plant", "setting": "[5]; Test no. 1, Eggplant", "value": 62, "unit": "%"}, {"measurement": "% Mortality rate against untreated plant", "setting": "[5]; Test no. 2, Eggplant", "value": 85, "unit": "%"}, {"measurement": "% Mortality rate against untreated plant", "setting": "[5]; Test no. 21, Hot pepper", "value": 45, "unit": "%"}, {"measurement": "% Mortality rate against untreated plant", "setting": "[6]; Test no. 8, Eggplant", "value": 71, "unit": "%"}, {"measurement": "% Mortality rate against untreated plant", "setting": "[6]; Test no. 10, Cucumber", "value": 87, "unit": "%"}, {"measurement": "% Mortality rate against untreated plant", "setting": "[6]; Test no. 15, Melon", "value": 63, "unit": "%"}, {"measurement": "% Mortality rate against untreated plant", "setting": "[6]; Test no. 18, Squash", "value": 93, "unit": "%"}, {"measurement": "% Mortality rate against untreated plant", "setting": "[6]; Test no. 19, Squash", "value": 84, "unit": "%"}]}, {"smiles": "CN1COCN(Cc2cnc(Cl)s2)/C1=N\\[N+](=O)[O-]", "note": "[thiamethoxam]", "values": [{"measurement": "% Mortality rate", "setting": "[7]; Test no. 1, soil drench 390 mg ai/plant", "value": 39, "unit": "%"}, {"measurement": "% Mortality rate", "setting": "[7]; Test no. 2, soil drench 390 mg ai/plant", "value": 68, "unit": "%"}, {"measurement": "% Mortality rate", "setting": "[7]; Test no. 3, soil drench 390 mg ai/plant", "value": 81, "unit": "%"}, {"measurement": "% Mortality rate", "setting": "[7]; Test no. 4, soil drench 390 mg ai/plant", "value": 73, "unit": "%"}, {"measurement": "% Mortality rate", "setting": "[7]; Test no. 5, soil drench 390 mg ai/plant", "value": 38, "unit": "%"}]}]}
